Laboratory results reported in patent US12540120B2, “Herbicidal compounds” (SYNGENTA CROP PROTECTION AG, priority 2019, dated 2026).

Assays:
Assay type in all cases: in vivo
[1] = tested on: Zea Mays (ZEAMX); test: B6 Pre-Emergence Efficacy—Test 3; conditions: pre-emergence application, 250 g/ha, evaluated after 13 days (Test 3)
Experimental: (§1) B6 Pre-Emergence Efficacy—Test 3 Seeds of a variety of test species were sown in standard soil in pots: Amaranthus retoflexus (AMARE), Setaria faberi (SETFA), Echinochloa crus-galli (ECHCG), Ipomoea hederacea (IPOHE), Zea Mays (ZEAMX), Abutilon theophrasti (ABUTH). After cultivation for one day (pre-emergence) under controlled conditions in a glasshouse (at 24/16° C., day/night; 14 hours light; 65% humidity), the plants were sprayed with an aqueous spray solution derived from the formulation of the technical active ingredient in acetone/water (50:50) solution containing 0.5% Tween 20 (polyoxyethelyene sorbitan monolaurate, CAS RN 9005-64-5). Compounds are applied at 250 g/ha. The test plants were then grown in a glasshouse under controlled conditions (at 24/16° C., day/night; 14 hours light; 65% humidity) and watered twice daily. After 13 days, the test is evaluated for the percentage damage caused to the plant. The biological activities are assessed on a five point scale (5=80-100%; 4=60-79%; 3=40-59%; 2=20-39%; 1=0-19%). A blank value in the table is indicative that the compound was not tested on that species.

[2] = tested on: Amaranthus retoflexus (AMARE); test: B6 Pre-Emergence Efficacy—Test 3; conditions: pre-emergence application, 250 g/ha, evaluated after 13 days (Test 3)
Experimental: as §1

[3] = tested on: Setaria faberi (SETFA); test: B6 Pre-Emergence Efficacy—Test 3; conditions: pre-emergence application, 250 g/ha, evaluated after 13 days (Test 3)
Experimental: as §1

[4] = tested on: Echinochloa crus-galli (ECHCG); test: B6 Pre-Emergence Efficacy—Test 3; conditions: pre-emergence application, 250 g/ha, evaluated after 13 days (Test 3)
Experimental: as §1

[5] = tested on: Abutilon theophrasti (ABUTH); test: B6 Pre-Emergence Efficacy—Test 3; conditions: pre-emergence application, 250 g/ha, evaluated after 13 days (Test 3)
Experimental: as §1

[6] = tested on: Ipomoea hederacea (IPOHE); test: B6 Pre-Emergence Efficacy—Test 3; conditions: pre-emergence application, 250 g/ha, evaluated after 13 days (Test 3)
Experimental: as §1

[7] = tested on: Zea Mays (ZEAMX); test: B3 Post-Emergence Efficacy—Test 3; conditions: post-emergence application, 250 g/ha, evaluated after 13 days (Test 3)
Experimental: (§2) B3 Post-Emergence Efficacy—Test 3 Seeds of a variety of test species are sown in standard soil in pots:—Amaranthus retoflexus (AMARE), Setaria faberi (SETFA), Echinochloa crus-galli (ECHCG), Ipomoea hederacea (IPOHE), Zea Mays (ZEAMX), Abutilon theophrasti (ABUTH). After 8 days cultivation (post-emergence) under controlled conditions in a glasshouse (at 24/16° C., day/night; 14 hours light; 65% humidity), the plants are sprayed with an aqueous spray solution derived from the formulation of the technical active ingredient in acetone/water (50:50) solution containing 0.5% Tween 20 (polyoxyethylene sorbitan monolaurate, CAS RN 9005-64-5). Compounds are applied at 250 g/ha. The test plants are then grown in a glasshouse under controlled conditions in a glasshouse (at 24/16° C., day/night; 14 hours light; 65% humidity) and watered twice daily. After 13 days, the test is evaluated for the percentage damage caused to the plant. The biological activities are assessed on a five point scale (5=80-100%; 4=60-79%; 3=40-59%; 2=20-39%; 1=0-19%). A blank value in the table is indicative that the compound was not tested on that species.

[8] = tested on: Amaranthus retoflexus (AMARE); test: B3 Post-Emergence Efficacy—Test 3; conditions: post-emergence application, 250 g/ha, evaluated after 13 days (Test 3)
Experimental: as §2

[9] = tested on: Setaria faberi (SETFA); test: B3 Post-Emergence Efficacy—Test 3; conditions: post-emergence application, 250 g/ha, evaluated after 13 days (Test 3)
Experimental: as §2

[10] = tested on: Echinochloa crus-galli (ECHCG); test: B3 Post-Emergence Efficacy—Test 3; conditions: post-emergence application, 250 g/ha, evaluated after 13 days (Test 3)
Experimental: as §2

[11] = tested on: Abutilon theophrasti (ABUTH); test: B3 Post-Emergence Efficacy—Test 3; conditions: post-emergence application, 250 g/ha, evaluated after 13 days (Test 3)
Experimental: as §2

[12] = tested on: Ipomoea hederacea (IPOHE); test: B3 Post-Emergence Efficacy—Test 3; conditions: post-emergence application, 250 g/ha, evaluated after 13 days (Test 3)
Experimental: as §2

Row | Structure (SMILES) | percentage damage caused to the plant, five point scale, ZEAMX [1] | percentage damage caused to the plant, five point scale, AMARE [2] | percentage damage caused to the plant, five point scale, SETFA [3] | percentage damage caused to the plant, five point scale, ECHCG [4] | percentage damage caused to the plant, five point scale, ABUTH [5] | percentage damage caused to the plant, five point scale, IPOHE [6] | percentage damage caused to the plant, five point scale, ZEAMX [7] | percentage damage caused to the plant, five point scale, AMARE [8] | percentage damage caused to the plant, five point scale, SETFA [9] | percentage damage caused to the plant, five point scale, ECHCG [10] | percentage damage caused to the plant, five point scale, ABUTH [11] | percentage damage caused to the plant, five point scale, IPOHE [12]
1 | CSCc1ccc(CCc2c(Cl)ccc(F)c2-c2c(O)c(C)nn(C)c2=O)cc1 [Compound A-1.388, 4-[3-chloro-6-fluoro-2-[2-[4-(methylsulfanylmethyl)phenyl]ethyl]phenyl]-5-hydroxy-2,6-dimethyl-pyridazin-3-one] | 4 (4=60-79%) | 5 (5=80-100%) | 5 (5=80-100%) | 5 (5=80-100%) | 5 (5=80-100%) | 5 (5=80-100%) | 4 (4=60-79%) | 5 (5=80-100%) | 4 (4=60-79%) | 4 (4=60-79%) | 5 (5=80-100%) | 4 (4=60-79%)
2 | Cc1nn(C)c(=O)c(-c2c(F)ccc(Cl)c2CCc2ccc(CSC(C)C)cc2)c1O [Compound A-1.389] | 4 (4=60-79%) | 5 (5=80-100%) | 5 (5=80-100%) | 5 (5=80-100%) | 3 (3=40-59%) | 5 (5=80-100%) | 5 (5=80-100%) | 4 (4=60-79%) | 5 (5=80-100%) | 5 (5=80-100%) | 4 (4=60-79%) | 5 (5=80-100%)
